Laboratory results taken from patent US12691046B2, “Ester compositions” (Evonik Operations GmbH, priority 2021, dated 2026).

Experiments:
[1] = Pigment/powder dispersion: increase in viscosity of the oil (Brookfield); format: physicochemical; conditions: for Increase in viscosity: 60% emollient + 40% pigment/powder mixture (Table 2), Brookfield, spindle 5, 50 rpm at 20° C.; for dispersibility of the pigment/powder mixture in the oil: judged from the increase in viscosity
From the text: Alkyl carboxylates according to the invention can help in the wetting of hydrophobized pigments and accordingly can be widely used in coloured cosmetics. The pigment wetting properties of cosmetic oils can be determined by measuring the viscosity of the pure oil, in comparison with the viscosity of the oil after dispersing a defined amount of pigments. The smaller the increase in viscosity thus determined, the better the property of an oil in wetting pigments on the surface and accordingly in dispersing.
The viscosities of the oils before addition of the pigment/powder mixture are determined using a Brookfield viscometer, spindle 5, 50 rpm at 20° C. After dispersion of the pigment/powder mixture, the viscosity is again determined in an identical way.

[2] = Mixtures of pure pigments with cosmetic oil: increase in viscosity (rheometer); format: physicochemical; conditions: for dispersibility of pure pigments in the oil: judged from the increase in viscosity; for Increase in viscosity, Carbon Black (CI77266, UniPure Black LC 902, Sensient): pigment:oil 15:85 w/w; for Increase in viscosity, Carbon Black (CI77266, UniPure Black LC 902, Sensient) / Increase in viscosity, (Yellow) Iron Oxide (CI 77492); Dimethicone (BYO-DS4, KOBO) / Increase in viscosity, (Black) Iron Oxides (CI 77499); Dimethicone (BYO-DS3, KOBO) / Increase in viscosity, Titanium Dioxide (CI 77891); Dimethicone (DHL-TRI-77891, US Cosmetics) / Increase in viscosity, (Red) Iron Oxides (CI 77491); Dimethicone (BYO-DS3, KOBO): rheometer MCR 302, 20° C., 1/100 sec, triplicate averaged; for Increase in viscosity, (Yellow) Iron Oxide (CI 77492); Dimethicone (BYO-DS4, KOBO): pigment:oil 40:60 w/w; for Increase in viscosity, (Black) Iron Oxides (CI 77499); Dimethicone (BYO-DS3, KOBO) / Increase in viscosity, Titanium Dioxide (CI 77891); Dimethicone (DHL-TRI-77891, US Cosmetics): pigment:oil 60:40 w/w; for Increase in viscosity, (Red) Iron Oxides (CI 77491); Dimethicone (BYO-DS3, KOBO): pigment:oil 65:35 w/w
Procedure: Here too, the pigment wetting properties of cosmetic oils can be determined by measuring the viscosity of the pure oil, in comparison with the viscosity of the oil after dispersing a defined amount of the pure pigment. The smaller the increase in viscosity thus determined, the better the property of an oil in wetting pigments on the surface and accordingly in dispersing.
The mixture is then stirred for 3 min at 3,500 rpm's and placed onto rheometer for measurement (Anton Paar Modular Compact Rheometer model MCR 302, 20° C., 1/100 sec). The viscosities of the neat cosmetics oils are also measured. Pigment mixtures and neat cosmetic oils are run in triplicate and the results averaged.
The increase in viscosity comparing the neat cosmetic oil and the pigment/cosmetic oil mixture is represented below (given in mPa·s): […]

SMILES | Increase in viscosity [1] | dispersibility of the pigment/powder mixture in the oil [1] | dispersibility of pure pigments in the oil [2] | Increase in viscosity, Carbon Black (CI77266, UniPure Black LC 902, Sensient) [2] | Increase in viscosity, (Yellow) Iron Oxide (CI 77492); Dimethicone (BYO-DS4, KOBO) [2] | Increase in viscosity, (Black) Iron Oxides (CI 77499); Dimethicone (BYO-DS3, KOBO) [2] | Increase in viscosity, Titanium Dioxide (CI 77891); Dimethicone (DHL-TRI-77891, US Cosmetics) [2] | Increase in viscosity, (Red) Iron Oxides (CI 77491); Dimethicone (BYO-DS3, KOBO) [2]
CCCCCCCCCCCCCCCCOC(=O)C(CC)CCCC (stereo not shown) [Cetyl Ethylhexanoate] | 2520 mPa · s | improved | improved | 625 mPa·s | 2357 mPa·s | 8718 mPa·s | 807 mPa·s | 5393 mPa·s
CCCCCCCCCCCC(=O)OCCC(C)C [Dermofeel ® sensolv, Isoamyl Laurate] | 1820 mPa · s | improved | improved | 223 mPa·s | 195 mPa·s | 458 mPa·s | 121 mPa·s | 2238 mPa·s
